Key:
[1] = molecular target: 5-hydroxytryptamine receptor 4 (Cavia porcellus) (UniProt O70528); assay: Tested for affinity towards 5-hydroxytryptamine 4 receptor in electrically stimulated longitudinal muscle preparation of guinea pig ileum; type: tissue-based
[2] = molecular target: T1, 5-hydroxytryptamine receptor 4 (Homo sapiens, UniProt Q13639); assay: (§1) Tested for 5-hydroxytryptamine 4 receptor antagonist activity; type: functional
[3] = molecular target: T1, 5-hydroxytryptamine receptor 4; assay: as §1; type: functional; remark: listed apart in the source
[4] = molecular target: 5-hydroxytryptamine receptor 4 (Rattus norvegicus) (UniProt Q62758); assay: Tested for affinity towards 5-hydroxytryptamine 4 receptor in relaxation of rat oesophagus
5-hydroxytryptamine receptor 4 (Rattus norvegicus), sequence (Q62758 whole entry): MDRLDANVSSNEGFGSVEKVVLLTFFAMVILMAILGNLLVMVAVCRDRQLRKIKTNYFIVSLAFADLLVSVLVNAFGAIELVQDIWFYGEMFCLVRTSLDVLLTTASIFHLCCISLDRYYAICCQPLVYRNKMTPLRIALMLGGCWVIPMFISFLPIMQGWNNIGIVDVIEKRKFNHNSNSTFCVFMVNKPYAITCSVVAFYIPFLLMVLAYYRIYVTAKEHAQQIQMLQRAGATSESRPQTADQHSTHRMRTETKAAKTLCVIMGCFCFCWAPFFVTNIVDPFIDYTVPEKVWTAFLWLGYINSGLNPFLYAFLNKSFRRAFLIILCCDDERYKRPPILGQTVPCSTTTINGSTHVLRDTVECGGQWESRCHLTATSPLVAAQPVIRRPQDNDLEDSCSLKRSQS

[5] = molecular target: T1, 5-hydroxytryptamine receptor 4; assay: as §1; type: functional; remark: listed apart in the source
[6] = molecular target: 5-hydroxytryptamine receptor 4 (Mus musculus) (UniProt P97288); assay: Tested for 5-hydroxytryptamine 4 binding affinity against renzapride
5-hydroxytryptamine receptor 4 (Mus musculus), sequence (P97288 whole entry, looked up): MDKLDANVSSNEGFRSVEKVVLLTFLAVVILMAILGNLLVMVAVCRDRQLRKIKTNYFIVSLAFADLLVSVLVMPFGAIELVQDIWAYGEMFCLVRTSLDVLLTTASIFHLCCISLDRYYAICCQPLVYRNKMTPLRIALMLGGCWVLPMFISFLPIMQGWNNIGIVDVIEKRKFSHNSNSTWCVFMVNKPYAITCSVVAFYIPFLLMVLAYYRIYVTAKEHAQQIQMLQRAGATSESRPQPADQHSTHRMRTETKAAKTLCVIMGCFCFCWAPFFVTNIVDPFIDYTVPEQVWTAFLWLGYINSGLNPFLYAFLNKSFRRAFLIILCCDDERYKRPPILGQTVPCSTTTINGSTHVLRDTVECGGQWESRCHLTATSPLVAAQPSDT

[7] = molecular target: 5-hydroxytryptamine receptor 4 (Mus musculus) (UniProt P97288); assay: Tested for 5-hydroxytryptamine 4 binding affinity against zacopride
[8] = molecular target: 5-hydroxytryptamine receptor 4 (Mus musculus) (UniProt P97288); assay: Tested for 5-hydroxytryptamine 4 binding affinity against cisapride
Rattus norvegicus = species on record: Rattus norvegicus; assay: Tested for affinity towards 5-HT receptor in relaxation of carbachol contracted rat oesophaga muscularis; type: functional
Cavia porcellus = species on record: Cavia porcellus; assay: Tested for inhibitory activity against 5-HT induced contractions of guinea pig ileum; type: functional
[9] = molecular target: Serotonin 3 (5-HT3) receptor; assay: (§2) Compound was tested for 5-hydroxytryptamine 3 receptor binding affinity; type: protein-complex assay
[10] = molecular target: T2, 5-hydroxytryptamine receptor 3A (Homo sapiens, UniProt P46098); assay: Tested for 5-hydroxytryptamine 3 receptor agonist activity; type: functional
T2 sequence (P46098 whole entry): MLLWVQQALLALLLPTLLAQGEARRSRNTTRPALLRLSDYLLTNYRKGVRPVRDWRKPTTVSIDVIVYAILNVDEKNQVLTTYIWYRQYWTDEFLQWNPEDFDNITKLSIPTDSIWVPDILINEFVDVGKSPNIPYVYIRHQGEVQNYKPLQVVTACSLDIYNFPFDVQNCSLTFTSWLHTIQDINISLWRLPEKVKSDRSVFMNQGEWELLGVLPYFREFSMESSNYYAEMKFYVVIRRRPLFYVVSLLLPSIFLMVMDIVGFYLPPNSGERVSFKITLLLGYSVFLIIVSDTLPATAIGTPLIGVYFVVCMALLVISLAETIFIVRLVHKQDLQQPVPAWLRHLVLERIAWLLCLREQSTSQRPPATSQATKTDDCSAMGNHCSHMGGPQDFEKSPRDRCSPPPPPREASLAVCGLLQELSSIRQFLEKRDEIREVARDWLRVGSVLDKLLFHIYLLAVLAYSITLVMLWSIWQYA

[11] = Tested for potency against electrically stimulated myenteric plexus; type: functional
[12] = molecular target: 5-hydroxytryptamine receptor 4 (Cavia porcellus) (UniProt O70528); assay: Tested for affinity towards 5-hydroxytryptamine 4 receptor in guinea pig distal colon preparation; type: tissue-based
[13] = molecular target: 5-hydroxytryptamine receptor 4 (Rattus norvegicus, UniProt Q62758); assay: Efficient 5-hydroxytryptamine 4 agonist in the rat tunica muscularis mucosae; type: functional, tissue-based, Muscularis mucosa
5-hydroxytryptamine receptor 4 (Rattus norvegicus, UniProt Q62758), sequence (Q62758 whole entry): as the sequence (Q62758 whole entry) above

[14] = molecular target: T2, 5-hydroxytryptamine receptor 3A; assay: as §2
[15] = molecular target: 5-hydroxytryptamine receptor 4 (Cavia porcellus, UniProt O70528); assay: Tested for affinity against 5-hydroxytryptamine 4 receptor in the myenteric plexus of the guinea pig ileum.; type: tissue-based
5-hydroxytryptamine receptor 4 (Cavia porcellus, UniProt O70528), sequence (O70528 whole entry): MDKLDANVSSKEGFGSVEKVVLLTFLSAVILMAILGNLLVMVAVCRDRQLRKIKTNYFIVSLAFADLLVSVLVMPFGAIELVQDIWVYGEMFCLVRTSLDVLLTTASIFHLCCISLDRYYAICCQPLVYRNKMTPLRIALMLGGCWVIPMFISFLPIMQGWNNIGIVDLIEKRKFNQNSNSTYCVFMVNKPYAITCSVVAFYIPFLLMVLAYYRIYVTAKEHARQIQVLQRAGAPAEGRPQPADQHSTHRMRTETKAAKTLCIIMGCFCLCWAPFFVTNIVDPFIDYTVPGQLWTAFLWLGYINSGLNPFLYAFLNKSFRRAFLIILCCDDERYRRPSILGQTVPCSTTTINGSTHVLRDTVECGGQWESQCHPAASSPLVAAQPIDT

[16] = molecular target: T1, 5-hydroxytryptamine receptor 4; assay: Tested for affinity towards 5-hydroxytryptamine 4 receptor.
[17] = molecular target: Serotonin 3 (5-HT3) receptor; assay: Tested for 5-hydroxytryptamine 3 receptor antagonist activity; type: functional

T1 sequence (Q13639 whole entry): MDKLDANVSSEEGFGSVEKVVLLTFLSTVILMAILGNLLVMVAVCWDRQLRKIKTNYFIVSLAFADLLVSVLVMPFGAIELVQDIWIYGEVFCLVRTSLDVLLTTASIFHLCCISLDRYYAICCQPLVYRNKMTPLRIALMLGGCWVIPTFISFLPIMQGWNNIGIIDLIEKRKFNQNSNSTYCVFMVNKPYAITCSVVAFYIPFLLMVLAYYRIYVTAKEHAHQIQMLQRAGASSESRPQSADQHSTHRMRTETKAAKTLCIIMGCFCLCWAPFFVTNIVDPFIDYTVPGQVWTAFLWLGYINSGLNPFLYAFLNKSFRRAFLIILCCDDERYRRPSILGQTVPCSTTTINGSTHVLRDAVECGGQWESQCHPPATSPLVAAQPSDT
5-hydroxytryptamine receptor 4 (Cavia porcellus), sequence (O70528 whole entry): as the sequence (O70528 whole entry) above

With `CCCCCNC(=N)N/N=C/c1c[nH]c2ccc(OC)cc12` the Activity [1] was 6.9 pD2.
In the case of `CC(C)n1c(=O)n(C(=O)NCCN2CCN(C)CC2)c2ccccc21`, the Ki [2] is reported as 91.9 nM and the Intrinsic activity [3] is reported as 0.94.
Work on `CCCCN1CCC(CCC(=O)c2cc(Cl)c(N)cc2OC)CC1` yielded an Activity [4] of 8.4 pEC50.
`CC(C)N1CCN(CCNC(=O)n2c(=O)n(C3CC3)c3ccccc32)CC1` showed a Ki [5] of 16.6 nM and a Ki [2] of 6.7 nM.
For `COc1cc(N)c(Cl)cc1C(=O)NC1CCN2C(C)CCCC2C1` (centres undefined) [BRL-20627], the EC50 [6] was 126 nM, the EC50 [7] was 1120 nM and the EC50 [8] was 72.4 nM.
With `COc1cc(COc2cc(N)c(Cl)cc2C(=O)CCCCN2CCCCC2)cc(OC)c1` the Activity (Rattus norvegicus) was 8.5 pKi.
`CCCCCN(C)C(=N)N/N=C/c1c[nH]c2c(C)cc(OC)cc12` gave an Activity (Cavia porcellus) of 8.4 pA2.
In the case of `COc1cc(N)c(Cl)cc1C(=O)NC1CC2CCC(C1)N2C` (centres undefined), the EC50 [6] is reported as 126 nM, the EC50 [7] is reported as 1120 nM and the EC50 [8] is reported as 72.4 nM.
For `N=C(N)N/N=C/c1c[nH]c2ccc(O)cc12`, the Activity [1] was 8.8 pD2.
Compound `COc1cc(N)c(Cl)cc1C(=O)NC1CCN(CCCOc2ccc(F)cc2)CC1OC` (centres undefined) [CISAPRIDE] has a Ki [9] of 152 nM.
`Nc1cc2c(cc1Cl)C(=O)NC1CCN(CCOCCO2)CC1` showed a Ki [10] of 53.2 nM and an EC50 [11] of 69 nM.
For `COc1cc(COc2cc(N)c(Cl)cc2C(=O)CCC2CCN(CCNS(C)(=O)=O)CC2)cc(OC)c1`, the Activity (Rattus norvegicus) was 9.2 pKi.
In the case of `CCCCN1CCC(COC(=O)c2c3n(c4ccccc24)CCCO3)CC1`, the Activity [12] is reported as 10.6 pIC50.
`COc1cc(N)c(Cl)cc1C(=O)NC[C@@H]1CCN2CCC[C@@H]12` gave an EC50 [13] of 23.7 nM and a Ki [14] of 152 nM.
For `CCOc1cc(N)c(Cl)cc1C(=O)NCC1CN(Cc2ccc(F)cc2)CCO1` (centres undefined) [MOSAPRIDE], the Ki [15] was 84 nM.
With `O=C(NCC1CCN2CCCCC2C1)c1c2n(c3ccccc13)CCCO2` (centres undefined) the Activity [12] was 9.5 pIC50.
Work on `CCCCN1CCC(CNC(=O)c2cc(Cl)c(N)c3c2OCCO3)CC1` yielded an Activity [16] of 9 pKa.
Compound `CCCCN1CCC(CNC(=O)c2c3n(c4ccccc24)CCCO3)CC1` has an Activity [12] of 9.2 pIC50.
With `CCCCCNC(=N)N/N=C/c1c[nH]c2ccc(O)cc12` the Activity [1] was 9.3 pD2.
For `COc1cc(N)c(Cl)cc1C(=O)CCC1CCN(CCNS(C)(=O)=O)CC1`, the Activity [4] was 8.6 pEC50.
Work on `CNC1(CNC(=O)c2cc(Cl)c(N)cc2OC)CCCC1` yielded a Ki [17] of 9 nM.

Source: ChEMBL document CHEMBL1144908, “5-HT4 receptor ligands: applications and new prospects” (J Med Chem, 2003)
